As usually defined, the IC50 is the concentration that inhibits the measured activity by half.

This note sets out measurements from US7713994B2 (Wyeth LLC, priority 2005, dated 2010).

The assay deals with T1, cyclin D1/cdk 4 enzyme (Homo sapiens, UniProt P11802).
T1 construct: made in house; host or cells: Sf9 insect cells, recombinant baculovirus
The assay is described as follows: CDK4 ELISA kinase assay (phospho-Rb ser 795 detection). Type of assay: biochemical. The settings on record: In Vitro Enzyme Assay, cyclin D1/cdk 4, read-out: CDK4 IC50. The method in brief: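 GST-Rb C-terminal fragment coated on wells; kinase reaction: 200 μM ATP, 0.5 mg/ml BSA, HEPES pH 7.5, 10 mM MgCl2, baculovirus/Sf9 cyclin-CDK, 30° C, 1 h. Readout anti-phospho-Rb Ser795, HRP, TMB, A450. Test compound 10 ug/ml final.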
(In an ELISA, binding on a coated surface is turned into a signal by an enzyme label.)

T1 sequence (P11802 whole entry, species assumed): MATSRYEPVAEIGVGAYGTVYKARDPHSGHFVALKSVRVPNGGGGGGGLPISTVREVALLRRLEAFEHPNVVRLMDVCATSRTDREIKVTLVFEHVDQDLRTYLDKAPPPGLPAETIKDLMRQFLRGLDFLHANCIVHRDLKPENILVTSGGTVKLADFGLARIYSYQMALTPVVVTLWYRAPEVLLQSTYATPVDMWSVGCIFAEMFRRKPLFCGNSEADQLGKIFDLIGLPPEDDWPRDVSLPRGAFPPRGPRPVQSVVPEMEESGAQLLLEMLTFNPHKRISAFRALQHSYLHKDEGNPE
T1 sequence (P24385 whole entry partner, species assumed): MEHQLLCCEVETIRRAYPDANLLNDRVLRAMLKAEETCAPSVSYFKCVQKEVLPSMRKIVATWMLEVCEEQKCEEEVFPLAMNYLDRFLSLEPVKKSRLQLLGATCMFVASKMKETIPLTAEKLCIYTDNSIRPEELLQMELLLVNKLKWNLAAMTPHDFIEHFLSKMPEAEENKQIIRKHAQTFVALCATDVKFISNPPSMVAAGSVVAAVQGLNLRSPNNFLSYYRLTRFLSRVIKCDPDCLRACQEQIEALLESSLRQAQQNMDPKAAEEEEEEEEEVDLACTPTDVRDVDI

Regarding `O=C1NC(=O)c2ccccc2C1=CNc1ccc(CN2CCCC(O)C2)cc1` (centres unmarked) [Example 615, 4-{[4-(3-Hydroxy-piperidin-1-ylmethyl)-phenylamino]-methylene}-4H-isoquinoline-1,3-dione], the IC50 worked out at 25.7 µM. As for `Cc1nc(NS(=O)(=O)c2ccc(NC=C3C(=O)NC(=O)c4ccccc43)cc2)oc1C` [Example 553, N-(4,5-Dimethyl-oxazol-2-yl)-4-[(1,3-dioxo-2,3-dihydro-1H-isoquinolin-4-ylidenemethyl)-amino]-benzenesulfonamide], the figure is 23.7 µM. `CC(=O)c1ccc(-c2ccc3c(c2)C(=CNCc2ccc(S(N)(=O)=O)cc2)C(=O)NC3=O)cc1` [Example 746, 4-({[6-(4-Acetyl-phenyl)-1,3-dioxo-2,3-dihydro-1H-isoquinolin-4-ylidenemethyl]-amino}-methyl)-benzenesulfonamide]: the IC50 was 0.5 µM. As for `O=C1NC(=O)c2ccccc2C1=CNCc1cccc(NCC(F)(F)F)c1` [Example 603, 4-{[3-(2,2,2-Trifluoro-ethylamino)-benzylamino]-methylene}-4H-isoquinoline-1,3-dione], the figure is 48.3 µM; as for `CNc1ccc(CN/C=C2\C(=O)NC(=O)c3ccccc32)cc1` [Example 604, 4-[(4-Methylamino-benzylamino)-methylene]-4H-isoquinoline-1,3-dione], 23.5 µM; as for `NS(=O)(=O)c1ccc(CNC=C2C(=O)NC(=O)c3ccc(-c4cccc(C(=O)O)c4)cc32)cc1` [Example 742, 3-{1,3-Dioxo-4-[(4-sulfamoyl-benzylamino)-methylene]-1,2,3,4-tetrahydro-isoquinolin-6-yl}-benzoic acid], 13.8 µM. Next, `N#CCc1ccc(NC=C2C(=O)NC(=O)c3ccc(-c4ccc5ccccc5c4)cc32)cc1` [Example 624, {4-[(6-Naphthalen-2-yl-1,3-dioxo-2,3-dihydro-1H-isoquinolin-4-ylidenemethyl)-amino]-phenyl}-acetonitrile]: 13 µM. As for `CC(=O)c1ccccc1-c1ccc2c(c1)C(=CNCc1ccc(O)c(O)c1)C(=O)NC2=O` [Example 777, 6-(2-Acetyl-phenyl)-4-[(3,4-dihydroxy-benzylamino)-methylene]-4H-isoquinoline-1,3-dione], the figure is 3.78 µM. Turning to `Cc1nnc(NS(=O)(=O)c2ccc(NC=C3C(=O)NC(=O)c4ccccc43)cc2)s1` [Example 549, 4-[(1,3-Dioxo-2,3-dihydro-1H-isoquinolin-4-ylidenemethyl)-amino]-N-(5-methyl-[1,3,4]thiadiazol-2-yl)-benzenesulfonamide], the IC50 is 40.2 µM. On to `CC(C#N)=C(C)c1ccc2c(c1)C(=CNc1ccc(N3CCN(C)CC3)cc1)C(=O)NC2=O` [Example 802, 2-Methyl-3-(4-{[4-(4-methyl-piperazin-1-yl)-phenylamino]-methylene}-1,3-dioxo-1,2,3,4-tetrahydro-isoquinolin-6-yl)-but-2-enenitrile], for which the IC50 came to 15 µM. For the compound `N#CCc1ccc(NC=C2C(=O)NC(=O)c3ccc(-c4cccc5cccnc45)cc32)cc1` [Example 625, {4-[(1,3-Dioxo-6-quinolin-8-yl-2,3-dihydro-1H-isoquinolin-4-ylidenemethyl)-amino]-phenyl}-acetonitrile], the half-inhibitory concentration (IC50) amounted to 14.8 µM. Next, `C=CCN1CCN(c2ccc(NC=C3C(=O)NC(=O)c4ccccc43)cc2)CC1` [Example 597, 4-{[4-(4-Allyl-piperazin-1-yl)-phenylamino]-methylene}-4H-isoquinoline-1,3-dione]: 39.2 µM; `O=C1NC(=O)c2ccc(-c3ccc(-c4ccccc4)cc3)cc2C1=CNCc1ccc(O)c(O)c1` [Example 786, 6-Biphenyl-4-yl-4-[(3,4-dihydroxy-benzylamino)-methylene]-4H-isoquinoline-1,3-dione]: 9.74 µM. Next, `Cc1ncsc1C=Cc1ccc2c(c1)C(=CNc1ccc(N3CCN(C)CC3)cc1)C(=O)NC2=O` [Example 681, 4-{[4-(4-Methyl-piperazin-1-yl)-phenylamino]-methylene}-6-[2-(4-methyl-thiazol-5-yl)-vinyl]-4H-isoquinoline-1,3-dione]: 17.7 µM.
